Reference: publication PMC7142633, “Impact of B-Ring Substitution and Acylation with Hydroxy Cinnamic Acids on the Inhibition of Porcine α-Amylase by Anthocyanin-3-Glycosides” (Foods, 2020)
Values joined by “and” are separate entries in the source; they are usually repeats but may differ in a detail not shown here. Equal values may be shown once. “Also recorded” adds a separate entry of the source. Read-outs that look alike come from different tables or passages of the source. Marks after values point to notes of the source that are not given here.

Legend:
[1] = target: T1, α-amylase from porcine pancreas (Sus scrofa, UniProt P00690); assay: Isothermal titration calorimetry, single injection, GalG2CNP conversion; format: biochemical; conditions: 100 µM inhibitor, 0.95 mM substrate, 37 °C
T1 construct: A saline suspension of α-amylase from porcine pancreas; purchased Sigma Aldrich (Steinheim, Germany) Lot #SLBN9170V (catalogue number not given); host or cells: porcine pancreas (tissue-derived)
T1 sequence (P00690 16-511): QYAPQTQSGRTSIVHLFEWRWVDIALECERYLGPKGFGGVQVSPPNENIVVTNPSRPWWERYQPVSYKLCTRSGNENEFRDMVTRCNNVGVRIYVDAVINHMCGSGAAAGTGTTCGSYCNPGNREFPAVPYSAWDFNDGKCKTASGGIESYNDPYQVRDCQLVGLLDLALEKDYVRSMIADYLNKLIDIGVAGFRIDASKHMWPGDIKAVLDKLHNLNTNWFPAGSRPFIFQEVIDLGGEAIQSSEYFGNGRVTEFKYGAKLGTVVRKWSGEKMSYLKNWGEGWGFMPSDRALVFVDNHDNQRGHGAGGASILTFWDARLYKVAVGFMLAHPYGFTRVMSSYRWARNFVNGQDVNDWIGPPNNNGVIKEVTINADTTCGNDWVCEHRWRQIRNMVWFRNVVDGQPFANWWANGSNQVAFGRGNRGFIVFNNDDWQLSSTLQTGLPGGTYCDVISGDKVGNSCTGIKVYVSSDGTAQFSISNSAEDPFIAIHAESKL
Experimental: To evaluate the inhibitory strength of 100 µM anthocyanin-3-glucosides and black carrot anthocyanins, GalG2CNP conversion to CNP was monitored by the released heat. According to the previous study, ITC measurements were carried out in a single injection experiment set-up on a MICROCALTM PEAQ-ITC calorimeter (S/N MAL1188053, Malvern Panalytical Almelo, Netherlands). Following an equilibration time of 10 min, 1 µL α-amylase (1 µM in 50 mM MES^+ buffer) was added to 0.95 mM of the substrate with or without 100 µM of the phenolic inhibitor in the cell (Vcell = 0.207 mL). The temperature was maintained at 37 °C and the sample was stirred at 750 rpm throughout. The feedback/gain mode was set to high. The resulting heat profile was transformed and the conversion rate was plotted against the substrate concentration [S] by an origin routine template provided by Malvern® for Origin version 7.

[2] = target: T1, α-amylase from porcine pancreas; assay: α-amylase enzyme activity assay, GalG2CNP conversion, UV/Vis detection of CNP at 405 nm; format: biochemical; conditions: for conversion rate (v0) / inhibitory effect in UV/Vis assay: black carrot anthocyanins, 12.5−50 µM, artifact, simulated accelerated conversion; for Ki: global fit, 12.5, 25, 50 µM, UV/Vis artifact
Experimental: The enzyme activity assay, […], was established by Homoki and co-workers and already used by the authors to evaluate the inhibitory strength of different phenolic structures. To enable the evaluation of the result obtained in the present study compared to the non-anthocyanin phenolics investigated previously, the assay conditions were identical. In short, to 12 different GalG2CNP concentrations ([S] = 0−2000 µM) in MES^+ buffer, inhibitor [I] and 50 µL enzyme solution (c = 1.51 units/~100 pM, on the basis of supplier information) were mixed in a microtiter plate (Greiner BioOne, Frickenhausen, Germany; transparent, F-bottom). For blanks, the enzyme solution was substituted with MES^+ buffer. The final volume per well was 250 µL. To quantify the reaction product, a linear calibration with eight different CNP concentrations in the range of 0−35 µM was performed for each plate. Dilutions of the anthocyanin stock solutions (0.1% HCl) were equilibrated at pH 6.1 for one hour. Final inhibitor concentrations were limited due to its strong absorption at 405 nm to 12.5, 25, and 50 µM. For each anthocyanin structure, the assay was conducted on two to three different days with freshly prepared stocks of substrate, enzyme, and inhibitor.
In addition to the Michaelis Menten constant (Km) and the maximal conversion rate (vmax) values (Table S1), inhibition constants (Kic, Kiu) were calculated by fitting the data by two approaches: (i) According to the mixed inhibition equation (Equation (4)) or competitive inhibition equation (Equation (5)), applying an optimal global fit containing data from all inhibitor concentrations including the control ([I] = 0 µM); and (ii) by an independent fit according to the Michaelis Menten equation (Equation (6)), providing the apparent values Km^app and Vmax^app (Table S2) for each inhibitor concentration, which were then used to calculate the inhibition constants (Equations (7) and (8)). (4) v0= vmax/Km/[S] · (1+[I]/Kic)+(1+[I]/Kiu), (5) v0=vmax/Km/[S] · ( 1+[I]/Kic)+1, (6) v0=vmax · [S]/Km+[S], (7) Kic=vmax^app/Km^app · [I]/vmax/Km−vmax^app/Km^app, (8) Kiu=vmax^app · [I]/vmax− vmax^app.
The IC50 values of the different anthocyanins were derived from the inhibition constants for different substrate concentrations by the Cheng−Prusoff equation (Equation (9)). (9) IC50=(Km+[S])/Km/Kic+[S]/Kiu.
• KM: Michaelis Menten constant (µM) • vmax: Maximal conversion rate of the uninhibited reaction (µM/min) • v0: Observed conversion rate at given substrate and inhibitor concentration (µM/min) • [S]: Substrate concentration • [I]: Inhibitor concentration • Kic: Inhibitor constant, reflecting the competitive inhibition in the equation (µM) • Kiu: Inhibitor constant, reflecting the uncompetitive inhibition in the equation (µM) • vmax^app: Calculated maximal conversion rate, when the Michaelis Menten equation is used on an inhibited curve (µM/min) • Km^app: Calculated Michaelis Menten constant, when the Michaelis Menten equation is used on an inhibited curve (µM) • IC50: Half maximal inhibitory concentration (inhibitor concentration needed to achieve 50% inhibition; it is dependent on the substrate concentration) (µM)
For data analyses and calculations, Origin 2018b (OriginLab, software extension Enzyme Kinetics) was used. The Levenberg−Marquardt algorithm procedure was chosen for iteration. All assays were performed in two independent replicates at different dates. Values are expressed in arithmetic means ± average deviation (AD). The statistical significance and differences between groups were analyzed by one-way analysis of variance (ANOVA), followed by Tukey’s test. Differences were considered significant when p < 0.05. Data were processed using Microsoft Excel® (2010).

[3] = target: porcine pancreatic α-amylase; parameters: method as in doi:10.1016/j.jff.2015.11.042; conditions: cited from earlier work
human salivary α-amylase = target: human salivary α-amylase; parameters: method as in PMID 26471548; conditions: cited from earlier work
[4] = target: T1, α-amylase from porcine pancreas; conditions: cited from earlier work; for IC50: read-out: IC50 (Cheng−Prussoff, Equation (9)); for Kmapp / vmaxapp: Michaelis Menten fit

In the case of `OC[C@H]1O[C@@H](Oc2cc3c(O)cc(O)cc3[o+]c2-c2ccc(O)c(O)c2)[C@H](O[C@@H]2OC[C@@H](O)[C@H](O)[C@H]2O)[C@@H](O)[C@H]1O` [BC 2, cyanidin-3-xylosyl-galactoside], the “inhibitory strength by ITC (thermogram, Michaelis Menten plot)” value (“inhibitory strength by ITC” below) [1] is reported as “no significant difference” and the “conversion rate (v0) / inhibitory effect in UV/Vis assay” value [2] is reported as “minor inhibitory effect”.
With `COc1cc(/C=C/C(=O)OC[C@H]2O[C@@H](OC[C@H]3O[C@@H](Oc4cc5c(O)cc(O)cc5[o+]c4-c4ccc(O)c(O)c4)[C@H](O[C@@H]4OC[C@@H](O)[C@H](O)[C@H]4O)[C@@H](O)[C@H]3O)[C@H](O)[C@@H](O)[C@@H]2O)ccc1O` [BC 4] the “inhibitory strength by ITC” value [1] was “significantly stronger inhibition of BC 4 compared to the non-acylated BC 2 and Cyd-3-glc”, the “conversion rate (v0) / inhibitory effect in UV/Vis assay” value [2] was “inhibits best” and the inhibition type ([2]; from fits and Lineweaver−Burk / Hanes plots) was “complete competitive inhibition; also recorded: predominantly competitive inhibition”. For the same compound, the Ki ([2]; Competitive Inhibition (Equation (5)), rough estimation, read-out: Kic) was ~20 µM and 20 µM, the Ki ([2]; Mixed Inhibition (Equation (4)), read-out: Kiu) was 98 ± 139 µM and the Ki ([2]; Mixed Inhibition (Equation (4)), rough estimation, read-out: Kic) was 23 ± 3 µM.
In the case of `C[C@@H]1O[C@@H](OC[C@H]2O[C@@H](Oc3cc4c(O)cc(O)cc4[o+]c3-c3ccc(O)c(O)c3)[C@H](O)[C@@H](O)[C@@H]2O)[C@H](O)[C@H](O)[C@H]1O` [Cyd-3-rut], the IC50 [3] is given as 31 ± 7 µM and the IC50 (human salivary α-amylase) is given as 200 ± 24 µM.
In the case of `COc1cc(-c2[o+]c3cc(O)cc(O)c3cc2O[C@@H]2O[C@H](CO)[C@@H](O)[C@H](O)[C@H]2O)cc(OC)c1O` [Mlv-glc, malvidin-3-glucoside], the “inhibitory strength by ITC” value [1] is listed as “Mlv-3-glc > Cyd-3-glc > Dpd-3-glc~Peo-3-glc”, the Kic/Kiu ([4]; (i) global fit, Equation (4)) is listed as 0.32 ± 0.07 ^a and the Ki ([4]; (i) global fit, mixed inhibition Equation (4), read-out: Kic) is listed as 44 ± 4 µM. For the same compound, the Ki ([4]; (i) global fit, mixed inhibition Equation (4), read-out: Kiu) was 143 ± 44 µM, the IC50 ([4]; (i) global fit, [S] 10 µM) was 46 ± 4 µM and the IC50 ([4]; (i) global fit, [S] 100 µM) was 58 ± 7 µM. For the same compound, the IC50 ([4]; (i) global fit, [S] 10^3 µM) was 106 ± 24 µM, the IC50 ([4]; (i) global fit, [S] 10^6 µM) was 143 ± 44 µM and the Ki ([4]; (ii) independent Michaelis Menten fit, Equation (7), read-out: Kic) was 69 ± 17 µM. For the same compound, the Ki ([4]; (ii) independent Michaelis Menten fit, Equation (8), read-out: Kiu) was 147 ± 50 µM, the Kic/Kiu ([4]; (ii) independent fit, Equations (7) and (8)) was 0.58 ± 0.35 ^a and the IC50 ([4]; (ii) independent fit, [S] 10 µM) was 71 ± 16 µM. For the same compound, the IC50 ([4]; (ii) independent fit, [S] 100 µM) was 83 ± 10 µM, the IC50 ([4]; (ii) independent fit, [S] 10^3 µM) was 121 ± 21 µM and the IC50 ([4]; (ii) independent fit, [S] 10^6 µM) was 147 ± 50 µM. The Kmapp ([4]; inhibitor c 25 µM) was 216 ± 3 µM, the vmaxapp ([4]; inhibitor c 25 µM) was 0.67 ± 0.16 µM/min and the Kmapp ([4]; inhibitor c 50 µM) was 337 ± 4 µM. For the same compound, the vmaxapp ([4]; inhibitor c 50 µM) was 0.60 ± 0.20 µM/min, the Kmapp ([4]; inhibitor c 12,5 µM) was 194 ± 22 µM and the vmaxapp ([4]; inhibitor c 12,5 µM) was 0.74 ± 0.24 µM/min. For the same compound, the Ki ([4]; from apparent values, inhibitor c 25 µM, read-out: Kic) was 74 ± 1 µM, the Ki ([4]; from apparent values, inhibitor c 25 µM, read-out: Kiu) was 150 ± 14 µM and the Ki ([4]; from apparent values, inhibitor c 50 µM, read-out: Kic) was 36 ± 6 µM. For the same compound, the Ki ([4]; from apparent values, inhibitor c 50 µM, read-out: Kiu) was 159 ± 66 µM, the Ki ([4]; from apparent values, inhibitor c 12,5 µM, read-out: Kic) was 139 µM and the Ki ([4]; from apparent values, inhibitor c 12,5 µM, read-out: Kiu) was 84 µM. For the same compound, the Ki ([4]; mean over inhibitor c 12,5, 25, 50 µM (Supplementary 2), read-out: Kic mean ± SD) was 83 ± 52 µM, the Ki ([4]; mean over inhibitor c 12,5, 25, 50 µM (Supplementary 2), read-out: Kiu mean ± SD) was 131 ± 41 µM and the IC50 (human salivary α-amylase) was 675 ± 73 µM. The inhibition type (human salivary α-amylase) was “competitive inhibition type”.
